Experimental data as given in the NIST ThermoML archive (doi:10.1016/j.jct.2011.02.012).
± gives the expanded uncertainty stated by the source.

Key:
[1] = 101.33 kPa, Liquid, Vibrating tube method
[2] = activity coefficient (dimensionless); of the first substance listed, at infinite dilution; xn = mol fraction of the nth substance listed; details: Liquid, Chromatography, x1 = 0

Structure (SMILES)	mass density ([1]; 298.15 K) [kg/m3]	mass density ([1]; 308.15 K) [kg/m3]	mass density ([1]; 318.15 K) [kg/m3]	mass density ([1]; 328.15 K) [kg/m3]	mass density ([1]; 338.15 K) [kg/m3]	mass density ([1]; 348.15 K) [kg/m3]	mass density ([1]; 358.15 K) [kg/m3]	activity coefficient ([2]; 298.15 K)	activity coefficient ([2]; 308.15 K)	activity coefficient ([2]; 318.15 K)	activity coefficient ([2]; 328.15 K)	activity coefficient ([2]; 338.15 K)	activity coefficient ([2]; 348.15 K)	activity coefficient ([2]; 358.15 K)
CCn1cc[n+](C)c1.N#C[B-](C#N)(C#N)C#N [1-ethyl-3-methylimidazolium tetracyanoborate]	1036.27 ± 0.26	1028.4 ± 0.25	1020.64 ± 0.25	1012.97 ± 0.24	1005.4 ± 0.24	997.91 ± 0.23	990.51 ± 0.23							
C=CCCCCCC [oct-1-ene] + CCn1cc[n+](C)c1.N#C[B-](C#N)(C#N)C#N								35 ± 2.4	32 ± 2.2	29.9 ± 2	27.8 ± 1.9	25.9 ± 1.8	24.5 ± 1.7	23.1 ± 1.6
CCCCCCCC [octane] + CCn1cc[n+](C)c1.N#C[B-](C#N)(C#N)C#N								83.2 ± 5.7	73.6 ± 5	67.4 ± 4.6	60.2 ± 4.1	54.8 ± 3.8	50.2 ± 3.4	46 ± 3.1
CCCC(C)=O [pentan-2-one] + CCn1cc[n+](C)c1.N#C[B-](C#N)(C#N)C#N									0.816 ± 0.053	0.833 ± 0.054	0.847 ± 0.054	0.861 ± 0.055	0.879 ± 0.056	0.796 ± 0.052
CCC(=O)CC [pentan-3-one] + CCn1cc[n+](C)c1.N#C[B-](C#N)(C#N)C#N									0.798 ± 0.052	0.821 ± 0.053	0.842 ± 0.054	0.861 ± 0.055	0.883 ± 0.056	0.771 ± 0.05
CCCCC [pentane] + CCn1cc[n+](C)c1.N#C[B-](C#N)(C#N)C#N								22 ± 1.5	20.1 ± 1.4	19.1 ± 1.3	17.6 ± 1.2	16.6 ± 1.1	15.8 ± 1.1	14.9 ± 1
CCCO [propan-1-ol] + CCn1cc[n+](C)c1.N#C[B-](C#N)(C#N)C#N								2.01 ± 0.14	1.81 ± 0.12	1.65 ± 0.11	1.5 ± 0.1	1.39 ± 0.09	1.3 ± 0.08	1.21 ± 0.08
C1CCOC1 [tetrahydrofuran] + CCn1cc[n+](C)c1.N#C[B-](C#N)(C#N)C#N								0.686 ± 0.046	0.707 ± 0.047	0.726 ± 0.048	0.737 ± 0.049	0.753 ± 0.05	0.775 ± 0.051	0.789 ± 0.051
c1ccsc1 [thiophene] + CCn1cc[n+](C)c1.N#C[B-](C#N)(C#N)C#N								0.938 ± 0.059	0.949 ± 0.06	0.958 ± 0.06	0.966 ± 0.061	0.976 ± 0.061	0.983 ± 0.062	0.992 ± 0.062
Cc1ccccc1 [toluene] + CCn1cc[n+](C)c1.N#C[B-](C#N)(C#N)C#N								1.65 ± 0.11	1.67 ± 0.11	1.69 ± 0.11	1.71 ± 0.11	1.73 ± 0.12	1.75 ± 0.12	1.76 ± 0.12
O [water] + CCn1cc[n+](C)c1.N#C[B-](C#N)(C#N)C#N								2.24 ± 0.15	1.99 ± 0.14	1.82 ± 0.12	1.66 ± 0.11	1.51 ± 0.1	1.38 ± 0.09	1.29 ± 0.08
